Assay results reported in US20230293562A1, “[…] COMBINATION OF GALNAC-OLIGO[…] AND SAPONIN, AND USES THEREOF” (SAPREME TECHNOLOGIES B.V., priority 2020, published 2023).
pIC50: −log10 of the molar value. [BNANC] = BNA^NC bridged nucleic acid nucleoside; {ThiolC6} = thiol C6 linker; d = 2'-deoxy (DNA)

Columns and labels:
Type in all cases: cell-based
[1] = test system: human primary hepatocytes (ASGPR1+); test: Cell viability assay on human primary hepatocytes; settings: + RNAiMAX
Description: (§1) ApoBBNA (ApoBBNA#01, targeting human ApoB mRNA) was conjugated to trivalent-GalNAc ((GalNAc)3) (FIG. 6) and primary hepatocytes (ASGPR1^+) cells were treated with a range of concentrations of (GalNAc)3-ApoBBNA#01 with and without addition of 2000 nM SO1861. ApoB gene silencing in primary hepatocytes (ASGPR1^+) cells was determined.
(§2) ApoB gene silencing in primary hepatocytes (ASGPR1^+) cells was determined. […] The dotted line in the ApoBBNA#02 RNAiMAX indicates concentrations at which toxicity and cell death occurs.
Briefly, the MTS solution was diluted 20× in DMEM without phenol red (PAN-Biotech GmbH) supplemented with 10% FBS. The cells were washed once with 200 µL/PBS well, after which 100 µL diluted MTS solution was added/well. The plate was incubated for approximately 20-30 minutes at 37° C. Subsequently, the OD at 492 nm was measured on a Thermo Scientific Multiskan FC plate reader (Thermo Scientific).

ApoB [2] = test: ApoB RNA expression analysis in human primary hepatocytes; settings: read-out: IC50 ApoB gene silencing
Description: as §1, §2
(§3) RNA from cells was isolated using TRI Reagent® Solution (Thermo Scientific) according to the manufacturer’s instruction. Conversion into cDNA was performed using iScript™ cDNA Synthesis Kit (BioRad) using standard protocols. ApoB expression levels and levels of specific hepatocyte housekeeping genes were determined using quantitative real-time PCR assays (qRT-PCR) using iTaq™ Universal SYBR® Green Supermix (BioRad) and the Light Cycler 480 (Roche Diagnostics, Rotkreuz, Switzerland) with specific DNA primers, listed in Table A4 (murine) and Table A2 (human). Analysis was done by the ΔCt method to determine ApoB expression relative to 2 hepatocyte-specific housekeeping control mRNAs. Each analysis reaction was performed in triplicate.

ApoB [3] = test: ApoB RNA expression analysis (qPCR) in mouse primary hepatocytes; settings: 72 hrs incubation
Description: as §3
Cryopreserved primary mouse hepatocytes ([…] Cell Culture Technology GmbH, Germany) were thawed in hepatocyte thawing media (HTM, […] Cell Culture Technology GmbH, Germany) and washed 1x with hepatocyte wash media (HWM, […] Cell Culture Technology GmbH, Germany). Cells were re-suspended in hepatocyte plating media (HPM Cryo, […] Cell Culture Technology GmbH, Germany) at a density of approx. 0.275 × 10^6 cells/ml. […] Plating medium was replaced by 315 µl or 108 µl assay media (MHM, […] Cell Culture Technology GmbH, Germany), after which conjugates were added from a 10x concentrated stock solution in PBS.

Work on “ApoBBNA#02: murine and human sequence-compatible ApoB BNA^NC oligonucleotide 5′-GCattggtatTCA-3′ [SEQ ID NO: 12], fully phosphorothioated (antisense GCATTGGTATTCA; sugars from the 5' end [BNANC]2 d8 [BNANC]3, all phosphorothioate, 5' {ThiolC6}, methylation of C not given here)” yielded a pIC50 [1] of 7.00, a pIC50 (ApoB [2]; RNAiMAX transfection) of 8.30 and a pIC50 (ApoB [2]; alone, without SO1861-EMCH) of 6.70. The “fold less potent in ApoB RNA downmodulation than (GalNAc)3-ApoB#02 BNA + 2000 nM SO1861-EMCH” value (ApoB [3]) was 100 - 667 fold and the pIC50 (ApoB [3]; alone, without SO1861-EMCH, read-out: IC50 ApoB RNA expression inhibition) was 7.70.
